Reference: PubChem BioAssay (NCI)
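Compound exposure: 48 hours, 5 concentrations, 96-well plates. TGI: concentration producing complete growth inhibition.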

Experiments:
Experiment in all cases: growth of human tumour cells (NCI), 48 h
SF-295 CNS = tested on: SF-295 CNS
RPMI-8226 leukemia = tested on: RPMI-8226 leukemia
OVCAR-8 ovarian = tested on: OVCAR-8 ovarian
UACC-257 melanoma = tested on: UACC-257 melanoma
ACHN renal = tested on: ACHN renal
XF 498 CNS = tested on: XF 498 CNS
OVCAR-5 ovarian = tested on: OVCAR-5 ovarian
DLD-1 colon = tested on: DLD-1 colon
IGROV1 ovarian = tested on: IGROV1 ovarian
UACC-62 melanoma = tested on: UACC-62 melanoma
HT29 colon = tested on: HT29 colon
786-0 renal = tested on: 786-0 renal
MALME-3M melanoma = tested on: MALME-3M melanoma
UO-31 renal = tested on: UO-31 renal
HCC-2998 colon = tested on: HCC-2998 colon
SNB-78 CNS = tested on: SNB-78 CNS
HCT-15 colon = tested on: HCT-15 colon
SF-539 CNS = tested on: SF-539 CNS
A549 NSCLC = tested on: A549 NSCLC
HOP-92 NSCLC = tested on: HOP-92 NSCLC
SK-MEL-5 melanoma = tested on: SK-MEL-5 melanoma
CAKI-1 renal = tested on: CAKI-1 renal
KM12 colon = tested on: KM12 colon
LXFL 529 NSCLC = tested on: LXFL 529 NSCLC
SN12C renal = tested on: SN12C renal
DMS 114 small cell lung = tested on: DMS 114 small cell lung
SK-OV-3 ovarian = tested on: SK-OV-3 ovarian
CCRF-CEM leukemia = tested on: CCRF-CEM leukemia
NCI-H460 lung = tested on: NCI-H460 lung
NCI-H23 lung = tested on: NCI-H23 lung
U251 CNS = tested on: U251 CNS
A498 renal = tested on: A498 renal
OVCAR-4 ovarian = tested on: OVCAR-4 ovarian
HL-60(TB) leukemia = tested on: HL-60(TB) leukemia
HOP-62 NSCLC = tested on: HOP-62 NSCLC
M19-MEL melanoma = tested on: M19-MEL melanoma
HCT-116 colon = tested on: HCT-116 colon
EKVX NSCLC = tested on: EKVX NSCLC
SF-268 CNS = tested on: SF-268 CNS
NCI-H226 lung = tested on: NCI-H226 lung
OVCAR-3 ovarian = tested on: OVCAR-3 ovarian
SW-620 colon = tested on: SW-620 colon
MOLT-4 leukemia = tested on: MOLT-4 leukemia
NCI-H522 lung = tested on: NCI-H522 lung
DMS 273 small cell lung = tested on: DMS 273 small cell lung
TK-10 renal = tested on: TK-10 renal
HOP-18 NSCLC = tested on: HOP-18 NSCLC
K-562 leukemia = tested on: K-562 leukemia
SNB-19 CNS = tested on: SNB-19 CNS
COLO 205 colon = tested on: COLO 205 colon
SK-MEL-2 melanoma = tested on: SK-MEL-2 melanoma
KM20L2 colon = tested on: KM20L2 colon
M14 melanoma = tested on: M14 melanoma

Measured: TGI

C=C1CCC23CC(CC[C@@H]2[C@@]12C[C@@H](c1ccoc1)OC2=O)OC3=O (stereo partly drawn)
> 100 µM: all assays above
